In general, melting point refers to the temperature, or range, at which the solid turns liquid. Broadly, the IC50 is the concentration that inhibits the measured activity by half. For orientation: viability means a read-out of living cells in per cent, often relative to untreated cells.

In data set [1] the test system is LOX-IMVI melanoma cell line. In words: LOX-IMVI melanoma cell line MTT cytotoxicity assay. The data set is classed as cell-based. As to conditions: Homo sapiens, 5-dose concentrations, read-out: LOX-IMVI melanoma IC50 ± SEM. As to the method: The MTT cytotoxicity assay was used to assess the anticancer activity of VIc, VIf, and VIk on the LOX-IMVI melanoma cell line, which comprises BRAF^V600E kinase overexpression. The compounds were evaluated at 5-dose concentrations to ascertain their IC50 values, with staurosporine acting as a control.
The MTT cytotoxicity assay was used to assess the anticancer activity of VIc, VIf, and VIk on the LOX-IMVI melanoma cell line, which comprises BRAF^V600E kinase overexpression. Refer to Appendix A.

Data set [2] is described as follows: MTT cell viability assay on normal mammary epithelial cells. The class given is cell-based. As to conditions: human, MCF-10A normal cells, 4 days incubation. On the procedure:
A human mammary gland epithelial (MCF-10A) normal cell line was used to perform the viability test. The viability of compounds VIa-k was determined using the MTT assay after 4 days of incubation with MCF-10A cells[26]^,[27].
The MTT assay was used to assess how the synthetic compounds impacted the viability of mammary epithelial cells (MCF-10A)[26]^,[27]. Appendix A. […]
4.2. Biological evaluation
4.2.1. Cytotoxic activity using MTT Assay and evaluation of IC50
MTT assay was carried out to study the effect of compounds on mammary epithelial cells (MCF-10A)26,27. The medium in which cells were propagated contained Dulbecco's modified Eagle's medium (DMEM)/ Ham's F-12 medium (1:1) supplemented with epidermal growth factor (20 ng/mL), hydrocortisone (500 ng/mL), insulin (10 μg/mL), 2 mM glutamine and 10% foetal calf serum. After every 2-3 days, the cells were passaged using trypsin ethylenediamine tetra acetic acid (EDTA). The cells were seeded at a density of 10^4 cells mL-1 in flat-bottomed culture plates containing 96 wells each. […]
A single compound was designated with four wells followed by incubation of plates for 96h at 37°C. After incubation, medium was removed completely from the plates followed by addition of MTT (0.4 mg/mL in medium) to each well and subsequent incubation of plates for 3h. MTT (along with the medium) was removed and DMSO (150μL) was added to each well of the culture plates, followed by vortexing and subsequent measurement of absorbance (at 540 nm) using microplate reader. […]
(Formazan colour is commonly taken as a measure of viable cells.)

[3] abbreviates: MCF-10A mammary epithelial cells.

`NC(=NOC(=O)/C=C/C=C/c1ccc2c(c1)OCO2)c1ccc(Br)cc1` [VIc, N'-{[(2E,4E)-5-(2H-1,3-Benzodioxol-5-yl)penta-2,4-dienoyl]oxy}-4-bromobenzene-1-carboximidamide] came in with a melting point of 159 to 161 °C. For the same molecule, the IC50 in data set [1] is 1.4 ± 0.02 µM. Besides, in data set [2] (setting [3]), the viability at 4 days, 50 µM came to 86%.

`NC(=NOC(=O)/C=C/C=C/c1ccc2c(c1)OCO2)c1ccccc1Cl` [VIf, N'-{[(2E,4E)-5-(2H-1,3-benzodioxol-5-yl)penta-2,4-dienoyl]oxy}-2-chlorobenzene-1-carboximidamide]: the melting point was in the range of 165 to 167 °C. Moreover, the IC50 in data set [1] came to 1.1 ± 0.01 µM. This molecule also came in with a viability at 4 days, 50 µM in data set [2] (setting [3]) of 90%.

On to `N/C(=N/OC(=O)/C=C/C=C/c1ccc2c(c1)OCO2)c1ccc2c(c1)OCO2` [VIk], for which, in data set [1], the IC50 amounted to 1.05 ± 0.01 µM. Besides, the viability at 4 days, 50 µM in data set [2] (MCF-10A normal mammary gland epithelial cells) is 89%.

The values are drawn from article PMC9721426, “Novel piperine-carboximidamide hybrids: design, synthesis, and antiproliferative activity via a multi-targeted inhibitory pathway” (Journal of Enzyme Inhibition and Medicinal Chemistry, 2022).
